In general, IC50 refers to the concentration needed to halve the response being measured. As a reminder, the viability, T/C is the ratio of treated to control.

This experiment deals with KRAS-mutant PDC tumor spheroid with HUVEC/MSC, viability. As to the kind of experiment: Anticancer human tumor 327498-153-R-J2-PDC patient-derived uterine carcinosarcoma cell line growth inhibition [KRAS2]. The following applies: for viability, T/C: stronger effect = lower value. The text has this: Multicellular complex tumor spheroid response to RAS pathway inhibitors in combination with a targeted agents in patient-derived cell lines with oncogenic KRAS variants from multiple cancer types
A high-throughput screen of multi-cell type tumor spheroids was designed to identify active combinations of targeted small molecules and KRAS pathway inhibitors. Complex spheroids include a stromal component modeled by human endothelial cells (HUVEC) and fibroblasts modeled by human mesenchymal stem cells (MSCs). The concentration ranges selected for each drug and investigational agent were based upon clinically achievable concentrations if the clinical Cmax of the agent was known.
Compounds. The drugs and investigational agents: BI-3406 (NSC825286), BAY-293 (NSC824723), batoprotafib (TNO155; NSC825523), sotorasib (AMG 510; NSC818433), MRTX1257 (NSC819558), elimusertib (BAY 1895344; NSC800525), molibresib (GSK525762; NSC774829), temuterkib (LY3214996; NSC803410), venetoclax (NSC766270), alisertib (NSC759677), olaparib (NSC753686), talazoparib (NSC767125), erdafitinib (NSC781556), ipatasertib (NSC767898), cabozantinib (NSC761068), nintedanib (NSC756659), abemaciclib (NSC768073), docetaxel (NSC628503), trametinib (NSC758246), and sapanisertib (NSC764658) were obtained from the National Cancer Institute (NCI) Developmental Therapeutics Program Chemical Repository. The FDA-approved anticancer drug set is available from the Developmental Therapeutics Program. […] The stock solutions were prepared in dimethyl sulfoxide (DMSO, Sigma-Aldrich, St. Louis, MO, cat. D2650) at 800-fold the tested concentration and stored at -70 degrees C prior to their use. All drugs and investigational agents were tested over a range starting from a high concentration at or near the clinical Cmax and decreasing in half-log increments. If the clinical Cmax for an agent had not been determined, the highest concentration tested was 10 microM.
Cell Culture. All cells were maintained in an incubator at 37 degrees C and 5% CO2 with 95% humidity. The PDC lines were cultured according to standard operating procedures established by the NCI PDMR (https://pdmr.cancer.gov/sops/default.htm). Briefly, all PDCs were thawed and cultured in Matrigel-coated flasks prepared with a working solution of 1X Ham's F-12 nutrient mix, without supplementation (Invitrogen, Waltham, MA, cat. 11765054), 100 U/mL penicillin-streptomycin (Invitrogen, cat. 15140122), and 2.5% Matrigel (Corning Inc., Corning, NY, cat. 354248) for the first three passages. All PDCs were cultured in complete DMEM/F-12 media containing advanced DMEM/F-12 (Invitrogen, cat. 12634028), 4.9% defined fetal bovine serum, heat inactivated (HyClone Laboratories Inc., Logan, UT, cat. SH30070.03HI), 389 ng/mL hydrocortisone (Sigma-Aldrich, cat. H4001), 9.7 ng/mL human EGF recombinant protein (Invitrogen, cat. PHG0313), 23.4 microg/mL adenine (Sigma-Aldrich, cat. A2786), 97.3 U/mL penicillin-streptomycin (Invitrogen, cat. 15140122), 1.9 mM L-glutamine (Invitrogen, cat. 25030081), and 9.7 microM Y-27632 dihydrochloride (Tocris Bioscience, Bristol, United Kingdom, cat. 1254). The PDCs were cultured in complete DMEM/F12 media without 9.7 microM Y-27632 dihydrochloride for at least two passages prior to the screen. The established cell line HOP-62 was cultured in RPMI 1640 medium, HEPES (Invitrogen, cat. 22400105) with 10% defined fetal bovine serum (HyClone Laboratories Inc., cat. SH30070.03) and 2 mM L-glutamine (Invitrogen, cat. 25030081). The pooled donor HUVEC were cultured in endothelial cell growth medium 2 (PromoCell, Heidelberg, Germany, cat. C-22011) and the hMSC were cultured in mesenchymal stem cell growth medium 2 (PromoCell, cat. C-28009). For all experiments, HUVEC and hMSC were used at passages </=5, while the malignant cell lines were used at passages </=15. […]

Setting [1] is: compound alone, run of 07/12/2021.
The mark [2] stands for this setting: compound alone, run of 07/19/2021.
Setting [3] is: compound alone, run of 07/26/2021.

Values joined by “and” are separate entries in the source; they are usually repeats but may differ in a detail not shown here. Equal entries are not always repeated. Active and inactive are the calls of the source. The calls were made as follows: active = viability on the fitted dose curve at most 10% of control; inactive = the rest.
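For IC50 in this document: spheroids exposed to agents for seven days before reading.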
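For viability, T/C in this document: spheroids exposed to agents for seven days before reading; 100% = DMSO vehicle wells so lower means fewer viable cells.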

Regarding `C=CC(=O)N1CCN(c2nc(=O)n(-c3c(C)ccnc3C(C)C)c3nc(-c4c(O)cccc4F)c(F)cc23)C(C)C1` (stereo not given), the half-inhibitory concentration (IC50) under setting [1] is > 10 µM and 1.31 µM and 1.22 µM.
Regarding `C=CC(=O)N1CCN(c2nc(OCC3CCCN3C)nc3c2CCN(c2cccc4cccc(C)c24)C3)CC1CC#N` (stereo not given), the viability, T/C (compound 0.316 µM) is 57.6% [middle of 16 runs] and the viability, T/C (compound 1 µM) is 49.2% [middle of 17 runs].
On to `CC1COCCN1c1cc(-c2ccnn2C)c2ccnc(-c3ccn[nH]3)c2n1` (stereo not given), for which the viability, T/C is 16.4% [middle of 5 runs] (compound 0.1 µM), 6.37% [middle of 5 runs] (compound 0.316 µM), 5.03% [middle of 5 runs] (compound 1 µM) and 4.84% [middle of 5 runs] (compound 3.16 µM).
As for `CNCc1ccccc1-c1csc(C(C)Nc2nc(C)nc3cc(OC)c(OC)cc23)c1` (stereo not given), the viability, T/C was 85.7% [middle of 17 runs] (compound 0.1 µM), 77.5% [middle of 17 runs] (compound 0.316 µM) and 1.07% [middle of 17 runs] (compound 10 µM). Moreover, the concentration for half-maximal inhibition (IC50) reads like this: under setting [2], 1.43 µM [middle of 5 runs]; under setting [3], 1.48 µM [middle of 5 runs].
Consider `COC(=O)c1ccc2c(C(=Nc3ccc(N(C)C(=O)CN4CCN(C)CC4)cc3)c3ccccc3)c(O)[nH]c2c1`, for which the viability, T/C (compound 0.0316 µM) is 89.5% [middle of 5 runs]; the viability, T/C (compound 0.1 µM) is 94.6% [middle of 5 runs]; the viability, T/C (compound 0.316 µM) is 84.9% [middle of 5 runs].
In the case of `COc1cc2nc(C)nc(NC(C)c3cc(N)cc(C(F)(F)F)c3)c2cc1OC1CCOC1` (stereo not given), the result (compound 0.316 µM) was inactive. The viability, T/C (compound 3.16 µM) is 65.2% [middle of 17 runs]. Moreover, the IC50 runs as follows: under setting [1], > 10 µM and 9.5 µM; under setting [2], > 10 µM and 8.25 µM and 8.16 µM; under setting [3], over 10 µM.
`CC(=O)OC12COC1CC(O)C1(C)C(=O)C(O)C3=C(C)C(OC(=O)C(O)C(NC(=O)OC(C)(C)C)c4ccccc4)CC(O)(C(OC(=O)c4ccccc4)C21)C3(C)C` (stereo not given) + C=CC(=O)N1CCN(c2nc(=O)n(-c3c(C)ccnc3C(C)C)c3nc(-c4c(O)cccc4F)c(F)cc23)C(C)C1: the IC50 was under 0.01 µM (curve of first compound, second compound 0.1 µM); under 0.01 µM (curve of first compound, second compound 0.316 µM); under 0.01 µM (curve of first compound, second compound 1 µM); under 0.01 µM (curve of first compound, second compound 3.16 µM); under 0.01 µM (curve of first compound, second compound 10 µM). Besides, the viability, T/C reads like this: (second compound 0.1 µM, first compound 0.01 µM) 8.43%; (second compound 0.1 µM, first compound 0.0316 µM) 6.6%; (second compound 0.1 µM, first compound 0.1 µM) 5.43%; (second compound 0.1 µM, first compound 0.316 µM) 6.55%; (second compound 0.1 µM, first compound 1 µM) 9.48%; (second compound 0.1 µM, first compound 3.16 µM) 11.1%. Further, the viability, T/C is, setting by setting: (second compound 0.316 µM, first compound 0.01 µM) 7.73%; (second compound 0.316 µM, first compound 0.0316 µM) 6.11%; (second compound 0.316 µM, first compound 0.1 µM) 5.72%; (second compound 0.316 µM, first compound 0.316 µM) 7.34%; (second compound 0.316 µM, first compound 1 µM) 8.77%; (second compound 0.316 µM, first compound 3.16 µM) 13.1%. The viability, T/C is 9.81% (second compound 1 µM, first compound 0.01 µM); 5.71% (second compound 1 µM, first compound 0.0316 µM); 10.5% (second compound 1 µM, first compound 0.1 µM); 8.73% (second compound 1 µM, first compound 0.316 µM); 8.75% (second compound 1 µM, first compound 1 µM); 10.7% (second compound 1 µM, first compound 3.16 µM). The viability, T/C (second compound 3.16 µM, first compound 0.01 µM) was 9.54%; the viability, T/C (second compound 3.16 µM, first compound 0.0316 µM) is 7.63%; the viability, T/C (second compound 3.16 µM, first compound 0.1 µM) was 7.71%; the viability, T/C (second compound 3.16 µM, first compound 0.316 µM) was 10.1%; the viability, T/C (second compound 3.16 µM, first compound 1 µM) is 11.2%; the viability, T/C (second compound 3.16 µM, first compound 3.16 µM) is 12.2%. Further, the viability, T/C runs as follows: (second compound 10 µM, first compound 0.01 µM) 11.1%; (second compound 10 µM, first compound 0.0316 µM) 9.72%; (second compound 10 µM, first compound 0.1 µM) 12.5%; (second compound 10 µM, first compound 0.316 µM) 13.3%; (second compound 10 µM, first compound 1 µM) 12.3%; (second compound 10 µM, first compound 3.16 µM) 12.8%.

Source of the values: PubChem BioAssay AID1963867 (Molecular Pharmacology Branch, DTP, NCI, 2024).
